How the values were obtained:
[1] = target: T1, α5 subunit receptors (Homo sapiens, UniProt P18507+P31644); settings: 3 μM; higher levels more strongly target α1, α2, & α3 subunit receptors; cited from earlier work
Target sequence in this assay (P28472 26-473): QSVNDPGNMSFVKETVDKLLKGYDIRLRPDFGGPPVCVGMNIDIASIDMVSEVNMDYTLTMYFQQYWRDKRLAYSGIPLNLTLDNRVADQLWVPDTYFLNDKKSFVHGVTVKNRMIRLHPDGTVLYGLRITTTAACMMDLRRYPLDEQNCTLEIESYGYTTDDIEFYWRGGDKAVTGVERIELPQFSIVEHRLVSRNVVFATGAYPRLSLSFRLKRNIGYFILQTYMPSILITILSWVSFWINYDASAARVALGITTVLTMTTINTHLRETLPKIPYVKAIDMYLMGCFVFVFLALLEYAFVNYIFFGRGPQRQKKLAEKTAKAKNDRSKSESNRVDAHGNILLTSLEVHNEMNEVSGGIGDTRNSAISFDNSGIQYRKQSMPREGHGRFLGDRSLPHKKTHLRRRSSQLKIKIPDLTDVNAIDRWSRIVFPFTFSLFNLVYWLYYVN
Target sequence in this assay (P18507 40-467): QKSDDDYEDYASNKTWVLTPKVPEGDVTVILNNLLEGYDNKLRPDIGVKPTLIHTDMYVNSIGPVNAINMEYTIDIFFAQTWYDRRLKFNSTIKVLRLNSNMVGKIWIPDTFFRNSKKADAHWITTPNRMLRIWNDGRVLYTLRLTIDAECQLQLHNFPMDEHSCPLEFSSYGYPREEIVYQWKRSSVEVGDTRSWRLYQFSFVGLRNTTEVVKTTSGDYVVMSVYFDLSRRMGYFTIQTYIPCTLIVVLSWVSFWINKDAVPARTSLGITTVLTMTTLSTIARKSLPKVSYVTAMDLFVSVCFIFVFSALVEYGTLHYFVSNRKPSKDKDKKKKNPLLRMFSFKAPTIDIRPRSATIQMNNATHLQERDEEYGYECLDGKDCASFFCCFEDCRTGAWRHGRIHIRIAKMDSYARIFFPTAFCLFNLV
Target sequence in this assay (P31644 32-462): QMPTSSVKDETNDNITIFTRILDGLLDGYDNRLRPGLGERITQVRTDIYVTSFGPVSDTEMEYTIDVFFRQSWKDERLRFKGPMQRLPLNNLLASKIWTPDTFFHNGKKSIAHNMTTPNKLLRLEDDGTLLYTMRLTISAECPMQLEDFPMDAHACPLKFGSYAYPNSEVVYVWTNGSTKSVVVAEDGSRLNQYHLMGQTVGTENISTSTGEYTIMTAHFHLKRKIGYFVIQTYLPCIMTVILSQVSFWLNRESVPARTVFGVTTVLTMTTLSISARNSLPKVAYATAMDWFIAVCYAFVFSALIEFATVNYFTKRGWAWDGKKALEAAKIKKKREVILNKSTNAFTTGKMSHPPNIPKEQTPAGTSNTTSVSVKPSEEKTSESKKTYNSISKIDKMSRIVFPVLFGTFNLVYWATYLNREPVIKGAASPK

[2] = tested on: chronically stressed mice; settings: mouse, in vivo; cited from earlier work
[3] = target: T1, α5 subunit receptors; experiment: whole-cell voltage-clamp recordings of tonic inhibition current in human cortical L2/3 Pyr neurons; assay type: cell-based; parameters: Neocortical tissue resected during tumor resection and anterior temporal lobectomy; from tissue; host or cells: human neocortical slices (resected frontal/temporal lobe tissue), L2/3 pyramidal neurons
Excerpt: Electrophysiology Data. We used whole-cell voltage-clamp recordings of baseline tonic inhibition current and tonic inhibition current during exposure to α5-PAM in human cortical L2/3 Pyr neurons (10 cells: 9 cells from 3 male subjects, 1 cell from 1 subject) from patients undergoing a standard anterior temporal lobectomy or tumor resection from the frontal or temporal lobe. Written informed consent was obtained from all participants, in accordance with the Declaration of Helsinki and the University Health Network Research Ethics board.
The data was collected using surgery resection, solutions, tissue preparation, and recording equipment described in Chameh et al., 2021 Nature Communications, 12(1), 2497 and Yao et al., 2022 Cell Reports, 38(2). Neocortical tissue resected during tumor resection and anterior temporal lobectomy was immediately submerged in ice-cold (~4° C.) cutting solution and transferred to a recording chamber within 20 minutes.
For recordings, slices were transferred to a recording chamber mounted on a fixed-stage upright microscope (Axioskop 2 FS MOT; Carl Zeiss, Germany). Slices were continually perfused at 4 ml/min with standard aCSF at 32-34° C. Whole-cell patch-clamp recordings were obtained using a Multiclamp 700 A amplifier, Axopatch 200B amplifier, and pClamp 9.2 and pClamp 10.6 data acquisition software (Axon instruments, Molecular Devices, USA). Subsequently, electrical signals were digitized at 20 kHz using a 1320X digitizer. For voltage-clamp recordings of tonic current, low-resistance patch pipettes (2-4 MΩ) were filled with a CsCl-based solution containing (in mM) 140 CsCl, 10 EGTA, 10 Hepes, 2 MgCl2, 2 Na2ATP, 0.3 GTP, and 5 QX314 adjusted to pH 7.3 with CsOH. The junction potential was calculated to be 4.3 mV and the holding potential was-74.3 mV after junction potential correction. In this configuration, 5 μM GABA, 25 μM AP5, 10 μM CNQX, and 10 μM CGP-35348 were first applied to generate larger GABA-dependent currents and assess baseline tonic inhibition currents while also blocking AMPA, NMDA, and GABAB mediated currents. […]
Target sequence in this assay (P31644 32-462): as above
Target sequence in this assay (P28472 26-473, further chain): as the sequence (P28472 26-473) above
Target sequence in this assay (P18507 40-467): as the sequence (P18507 40-467) above

## C#Cc1ccc2c(c1)C(c1ccccc1F)=N[C@H](C)c1c(C(=O)N(C)C)ncn1-2 [α5-PAM, GL-II-73]
[1]
  subunit selectivity: selectively targeting α5 subunit receptors
[2]
  effect in chronically stressed mice: pro-cognitive effects
[3]; 3 μM with 5 μM GABA, ± standard error of the mean, n=10 cells, baseline 65.86±10.28
  mean amplitude of tonic inhibitory current relative to endogenous current in picrotoxin condition: 95.28±14.52 pA
[3]; therapeutically relevant dose (3 μM) of α5-PAM in addition to GABA, mean±standard deviation, GABA alone −65.9±30.8
  tonic inhibition current magnitude: −95.3±43.6 pA
[3]; α5-PAM in addition to GABA vs GABA alone
  increase in current magnitude: 52%

— US20260253701A1, “EEG BIOMARKERS FOR ALPHA5 PAM DOSAGE DETERMINATION AND THERAPEUTIC MONITORING” (priority 2022, published 2026)
